From patent US20220362182A1, “METHODS FOR REVERSING HEPATIC STEATOSIS” (BRIGHTSEED, INC., priority 2020, published 2022)
Entries after “also recorded” stand apart in the source; their conditions may differ. Read-outs that look alike come from different tables or passages of the source.

Columns and labels:
INS mRNA = experiment: insulin mRNA qPCR in T6PNE cells; assay type: cell-based, human
Protocol: (§1) Quantitative PCR (Q-PCR) from in vitro cell culture experiments used total RNA purified using RNeasy Kits (Qiagen). For liver tissue samples, total RNA was isolated using Trizol (Invitrogen) and prepared for RNAseq (mouse liver DMSO and NCT, N=3). cDNA was amplified using 3 μg of total RNA using qScript cDNA SuperMix (Quanta BioSciences, Beverly, Mass., USA). QPCR analysis was performed using SYBR® Select Master Mix (Applied Biosystems) and ABI 7900HT (Applied Biosystems, Thermo Fisher Scientific). The Ct values of mRNA expression were then normalized to the 18 s rRNA values and are expressed as fold change over samples from mice fed normal chow for in vivo experiments or DMSO controls for cell culture experiments.

HNF4α mRNA = HNF4α mRNA qPCR in T6PNE cells; assay type: cell-based, human
Protocol: as §1

T6PNE cells = experiment: fat clearance assay in palmitate-treated T6PNE cells (Oil Red O, Nile Red, triglyceride); assay type: cell-based, human; details: 0.25 mM palmitate for 2 days; for cellular triglyceride (TG) level: 10 μM
Protocol: Oil red O and Nile Red staining were used to measure lipid accumulation. Oil Red O staining was done as known in the art. Briefly, fixed cells were incubated with Oil Red O solution (Poly Scientific) for 3 h, followed by photomicrography (Olympus, IX71). For Nile Red staining, dye (1: 500 in PBS from 1 mg/ml in ethanol stock, Sigma) was added for 30 mins and DAPI added for 10 mins at room temperature. Quantification of Nile Red staining was done with a Celigo imaging cytometer (Nexcelom Bioscience). More than 4000 cells were analyzed for each quantification. The number of Nile Redpositive cells was normalized to the DAPI-positive cell number for each well and fold change was calculated relative to a DMSO control well.
Palmitate (150 mM) (Sigma-Aldrich) was prepared in 50% ethanol and precomplexed with 15% fatty acid-free BSA (Research Organics, Cleveland, Ohio, USA) in a 37 C water shaker. BSA-precomplexed palmitate was used as a 12 mM stock solution for all assays with a final concentration of 0.25 mM palmitate in cell culture medium.
siRNAs were purchased from Ambion. For transfections, 24 μL of each siRNA (1 μM stock) was mixed with 90 μL of a 1:100 dilution of Lipofectamine RNAi MAX (Invitrogen, Waltham, Mass., USA) in Opti-MEM. Transfection was done in 24 well plates (Thermo Fisher Scientific, Waltham, Mass., USA), by incubation with cells for 30 min. at room temperature. One day after transfection, cells were transferred to 96 well plates (2000 cells per well) and incubated at 37° C. for an additional day. Forty-eight hours after transfection, either palmitate-BSA complex or BSA control plus or minus compounds was added for 2 days. For validation of siRNAs, transfected cells were harvested for RNA purification and QPCR for each gene 2 days after transfection.
The bicinchoninic acid (BCA) protein assay kit assay (Thermo scientific) was used to measure protein amount for DART, Western blotting and TG assays. Absorbance at 550 nm was determined using a plate reader.

HNF4α [1] = biological target: T1, HNF4α (Homo sapiens, UniProt P41235); experiment: T6PNE insulin promoter assay (human insulin promoter-GFP transgene); assay type: cell-based; set-up: endogenous in cells; host or cells: T6PNE cells; details: T6PNE cells; for insulin promoter activity / HNF4α activation: GFP-positive cells relative to DMSO; for dose responsiveness in the INS promoter assay: multiple doses
T1 sequence (P41235 1-474): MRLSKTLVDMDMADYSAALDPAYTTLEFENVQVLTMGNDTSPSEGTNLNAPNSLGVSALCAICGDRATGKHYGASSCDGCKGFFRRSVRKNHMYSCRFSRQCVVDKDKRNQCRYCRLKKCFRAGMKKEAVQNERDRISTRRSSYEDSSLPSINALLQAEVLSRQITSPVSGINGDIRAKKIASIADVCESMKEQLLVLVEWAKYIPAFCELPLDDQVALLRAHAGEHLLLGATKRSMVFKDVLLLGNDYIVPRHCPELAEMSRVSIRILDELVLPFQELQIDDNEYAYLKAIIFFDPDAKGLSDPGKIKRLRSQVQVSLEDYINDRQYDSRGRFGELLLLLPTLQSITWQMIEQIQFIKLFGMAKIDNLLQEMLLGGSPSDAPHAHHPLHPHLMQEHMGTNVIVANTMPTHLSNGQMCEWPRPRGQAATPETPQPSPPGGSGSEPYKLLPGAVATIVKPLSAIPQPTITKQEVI
Protocol: The T6PNE insulin promoter assay has been described previously and was performed here with slight modifications as follows: T6PNE cells were seeded at 200 cells per well in 384-well tissue culture plates (Greiner Bio-One) in the presence of 0.5 μM tamoxifen. Compounds described herein in DMSO were dispensed with an Echo 555 Acoustic Liquid Handler (Beckman Coulter). Three days after compound addition, cells were fixed in 4% paraformaldehyde (USBio) for 15 min and stained with DAPI (0.167 μg/ml, Invitrogen). Blue (DAPI) and green (GFP) channels were imaged using a Celigo imaging cytometer (Nexcelom Bioscience). The number of GFPpositive cells was normalized to the DAPI-positive cell number and fold change calculated relative to the DMSO control.
T6PNE cells were maintained in RPMI (5.5mM glucose, Corning) supplemented with 10% fetal bovine serum (FBS, Sigma-Aldrich) and 1% penicillin-streptomycin (pen-strep, Gibco). Cells were maintained in 5% CO2 at 37° C. For the insulin promoter assay, 0.5 μM tamoxifen (Sigma-Aldrich) was added to T6PNE cell culture media. HepG2 or HeLa cells were cultured in DMEM (high glucose, Corning) supplemented with 10% FBS and 1% pen-strep and maintained at 5% CO2, 37° C.

HNF4α [2] = biological target: T1, HNF4α; experiment: DARTS assay (HNF4α protease sensitivity) in HepG2 cells; assay type: binding; set-up: Total cell protein was extracted; endogenous in cells; host or cells: HepG2 cells; details: 40 or 80 μM for 16 h, subtilisin
Protocol: DARTS assays were conducted as described in the art. HepG2 cells were treated with DMSO, BI6015, NCT, NFT at a concentration of 40 or 80 μM for 16 hr. Total cell protein was extracted and measured by BCA protein assay (Thermo Scientific). Each sample was split into two aliquots for proteolysis without (−) or with (+) Subtilisin (Sigma-Aldrich). Forty […] of cell lysate was incubated with or without protease (40 ng/ml subtilisin) for 35 min at room temperature.
Whole-cell extracts were prepared by incubation in RIPA buffer (Invitrogen) containing protease inhibitors (Calbiochem, San Diego, Calif.). Protein ([…]) was separated on 12% or 16% Tri-Glycine gels (Invitrogen) and transferred to Immobilon P membrane (0.2 μm pore, Millipore). After 1 h in phosphate-buffered saline-Tween (PBST) with 3% milk, membrane was incubated with antibodies to HNF4α (mouse, Novus, 1:1000), LC3B (rabbit, Novus, 1:500), p62 (SQSTM1, mouse, Santa Cruz, 1:1000) or β-actin (mouse, Santa Cruz, 1:2000), followed by secondary antibody conjugated to horseradish peroxidase (1:5000, Jackson Immune).

| SMILES | INS mRNA (INS mRNA) | HNF4α mRNA (HNF4α mRNA) | fat clearance (stored fat by Oil Red O and Nile Red staining) (T6PNE cells) | cellular triglyceride (TG) level (T6PNE cells) | insulin promoter activity / HNF4α activation (HNF4α [1]) | dose responsiveness in the INS promoter assay (HNF4α [1]) | HNF4α proteolytic sensitivity / conformational change (HNF4α [2]) | HNF4α mRNA (HNF4α mRNA; listed as N-trans-caffeoyltyramine) |
| --- | --- | --- | --- | --- | --- | --- | --- | --- |
| COc1cc(/C=C/C(=O)NCCc2ccc(O)cc2)ccc1O [NFT, N-trans feruloyltyramine] | increased | increased; also recorded: induced HNF4α expression | less stored fat than control cells; also recorded: induced fat clearance from palmitate-loaded cells | produced the same result as the Nile Red staining | more potent activators; also recorded: approximately as active as alverine; also recorded: much more potent | exhibited dose responsiveness | induced a change in HNF4α proteolytic sensitivity | – |
| O=C(/C=C/c1ccc(O)c(O)c1)NCCc1ccc(O)cc1 [NCT, N-trans-caffeoyltyramine] | increased | increased; also recorded: induced HNF4α expression | less stored fat than control cells; also recorded: induced fat clearance from palmitate-loaded cells | produced the same result as the Nile Red staining | more potent activators; also recorded: strongest inducer of insulin promoter activity; also recorded: much more potent | exhibited dose responsiveness | induced a change in HNF4α proteolytic sensitivity | induces the expression of HNF4a mRNA |
